According to ChEMBL document CHEMBL4507278 (2021):

Legend:
[1] = biological target: 5-hydroxytryptamine receptor 6 (Homo sapiens) (UniProt P50406); conditions: Compound concentration 10.0 uM
[2] = biological target: RAC-beta serine/threonine-protein kinase (Homo sapiens) (UniProt P31751); conditions: Compound concentration 1000.0 nM
[3] = biological target: Muscarinic acetylcholine receptor M2 (Homo sapiens) (UniProt P08172); conditions: Compound concentration 10.0 uM
[4] = biological target: Ephrin type-A receptor 7 (Homo sapiens) (UniProt Q15375); conditions: Compound concentration 1000.0 nM
[5] = biological target: Mitogen-activated protein kinase kinase kinase 3 (Homo sapiens) (UniProt Q99759); conditions: Compound concentration 1000.0 nM
[6] = biological target: Sodium-dependent serotonin transporter (Homo sapiens) (UniProt P31645); test: 5HTTRANS/HU Eurofins-Panlabs selectivity data (BI); conditions: Compound concentration 10.0 uM
[7] = biological target: Sigma non-opioid intracellular receptor 1 (Homo sapiens) (UniProt Q99720); test: SIGMA1/HU Eurofins-Panlabs selectivity data (BI); conditions: Compound concentration 10.0 uM
[8] = biological target: T1, 5-hydroxytryptamine receptor 1A (Homo sapiens) (UniProt P08908); test: 5HT1A/HU Eurofins-Panlabs selectivity data (BI); conditions: Compound concentration 10.0 uM
T1 sequence (whole entry): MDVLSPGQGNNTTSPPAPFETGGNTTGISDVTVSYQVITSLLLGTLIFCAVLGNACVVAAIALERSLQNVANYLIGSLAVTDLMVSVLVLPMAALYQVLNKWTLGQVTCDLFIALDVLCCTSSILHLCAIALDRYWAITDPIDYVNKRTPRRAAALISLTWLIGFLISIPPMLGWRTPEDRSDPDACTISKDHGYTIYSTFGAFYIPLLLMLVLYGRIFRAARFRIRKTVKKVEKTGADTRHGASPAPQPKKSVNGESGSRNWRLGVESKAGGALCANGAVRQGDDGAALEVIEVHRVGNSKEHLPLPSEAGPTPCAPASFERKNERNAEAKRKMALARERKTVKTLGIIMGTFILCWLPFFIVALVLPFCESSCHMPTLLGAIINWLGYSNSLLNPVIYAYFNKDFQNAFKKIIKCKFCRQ

[9] = biological target: D(3) dopamine receptor (Homo sapiens) (UniProt P35462); test: D3/HU Eurofins-Panlabs selectivity data (BI); conditions: Compound concentration 10.0 uM
[10] = biological target: T2, 5-hydroxytryptamine receptor 3A (Homo sapiens) (UniProt P46098); test: 5HT3/HU Eurofins-Panlabs selectivity data (BI); conditions: Compound concentration 10.0 uM
T2 sequence (whole entry): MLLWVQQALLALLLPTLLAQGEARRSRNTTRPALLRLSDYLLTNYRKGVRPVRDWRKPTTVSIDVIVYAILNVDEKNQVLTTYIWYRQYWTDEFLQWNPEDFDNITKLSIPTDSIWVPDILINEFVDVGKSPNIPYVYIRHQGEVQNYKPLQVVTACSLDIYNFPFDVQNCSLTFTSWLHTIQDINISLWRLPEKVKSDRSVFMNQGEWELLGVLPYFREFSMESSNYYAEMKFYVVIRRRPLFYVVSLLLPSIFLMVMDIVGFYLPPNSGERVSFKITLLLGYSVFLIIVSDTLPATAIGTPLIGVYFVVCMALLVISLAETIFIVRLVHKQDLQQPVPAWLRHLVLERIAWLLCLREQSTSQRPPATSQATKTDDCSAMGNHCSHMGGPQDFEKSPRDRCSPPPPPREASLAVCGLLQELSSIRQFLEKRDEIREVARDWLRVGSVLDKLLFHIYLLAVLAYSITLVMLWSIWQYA

[11] = biological target: Androgen receptor (Rattus norvegicus) (UniProt P15207); test: TESTOST/RA Eurofins-Panlabs selectivity data (BI); conditions: Compound concentration 10.0 uM
[12] = biological target: Cannabinoid receptor 1 (Homo sapiens) (UniProt P21554); test: CB1 Eurofins-Panlabs selectivity data (BI); conditions: Compound concentration 10.0 uM
[13] = biological target: Voltage-dependent L-type calcium channel subunit alpha-1C (DHP site) (Rattus norvegicus, UniProt P22002); test: CA+/DHPSI/RA Eurofins-Panlabs selectivity data (BI); conditions: compound concentration 10 uM, read-out: % Ctrl
[14] = biological target: Kappa-type opioid receptor (Homo sapiens) (UniProt P41145); test: KAPPA/HU Eurofins-Panlabs selectivity data (BI); conditions: Compound concentration 10.0 uM
[15] = biological target: Gamma-aminobutyric acid receptor subunit alpha-1 (Rattus norvegicus) (UniProt P62813); test: GABAA MUSCIMOL CENT Eurofins-Panlabs selectivity data (BI); conditions: Compound concentration 10.0 uM
[16] = biological target: Muscarinic acetylcholine receptor M3 (Homo sapiens) (UniProt P20309); conditions: Compound concentration 10.0 uM
[17] = biological target: Sodium- and chloride-dependent GABA transporter 1 (Rattus norvegicus) (UniProt P23978); test: GABATRANS/RA Eurofins-Panlabs selectivity data (BI); conditions: Compound concentration 10.0 uM
[18] = biological target: Melatonin receptor type 1A (Homo sapiens) (UniProt P48039); test: MT1/H Eurofins-Panlabs selectivity data (BI); conditions: Compound concentration 10.0 uM
[19] = biological target: T3, C-C chemokine receptor type 1 (Homo sapiens) (UniProt P32246); test: CCR1 Eurofins-Panlabs selectivity data (BI)
T3 sequence (whole entry): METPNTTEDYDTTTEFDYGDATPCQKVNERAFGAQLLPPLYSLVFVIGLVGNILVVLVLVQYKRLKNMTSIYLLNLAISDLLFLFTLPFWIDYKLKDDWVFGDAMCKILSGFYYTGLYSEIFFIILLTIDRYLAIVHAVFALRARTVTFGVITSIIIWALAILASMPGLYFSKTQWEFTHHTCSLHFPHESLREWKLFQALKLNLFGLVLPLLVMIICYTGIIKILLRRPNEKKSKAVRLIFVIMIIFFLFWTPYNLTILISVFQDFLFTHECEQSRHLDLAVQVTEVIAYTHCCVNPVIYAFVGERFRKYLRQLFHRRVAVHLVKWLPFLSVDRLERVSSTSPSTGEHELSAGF

[20] = biological target: Nicotinic acetylcholine receptor alpha-1/beta-1 (Homo sapiens) (UniProt P02708+P11230); test: NACH_BS_N/H Eurofins-Panlabs selectivity data (BI); type: protein-complex assay; conditions: Compound concentration 10.0 uM
[21] = biological target: Alpha-1B adrenergic receptor (Rattus norvegicus) (UniProt P15823); test: ALPHA1B/R Eurofins-Panlabs selectivity data (BI); conditions: Compound concentration 10.0 uM
[22] = biological target: Endothelin-1 receptor (Homo sapiens) (UniProt P25101); test: ETA/HU Eurofins-Panlabs selectivity data (BI); conditions: Compound concentration 10.0 uM
[23] = biological target: Gamma-aminobutyric acid type B receptor subunit 1 (Homo sapiens) (UniProt Q9UBS5); test: GABA_B1A Eurofins-Panlabs selectivity data (BI); conditions: Compound concentration 10.0 uM
[24] = biological target: Alpha-1A adrenergic receptor (Rattus norvegicus) (UniProt P43140); test: ALPHA1A/R Eurofins-Panlabs selectivity data (BI); conditions: Compound concentration 10.0 uM
[25] = biological target: Thyroid hormone receptor alpha (Rattus norvegicus) (UniProt P63059); test: THYROID HORM Eurofins-Panlabs selectivity data (BI); conditions: Compound concentration 10.0 uM
[26] = biological target: Beta-1 adrenergic receptor (Homo sapiens, UniProt P08588); test: BETA1/HU Eurofins-Panlabs selectivity data (BI); conditions: Compound concentration 10.0 uM
Sequence of Beta-1 adrenergic receptor (P08588 whole entry, looked up): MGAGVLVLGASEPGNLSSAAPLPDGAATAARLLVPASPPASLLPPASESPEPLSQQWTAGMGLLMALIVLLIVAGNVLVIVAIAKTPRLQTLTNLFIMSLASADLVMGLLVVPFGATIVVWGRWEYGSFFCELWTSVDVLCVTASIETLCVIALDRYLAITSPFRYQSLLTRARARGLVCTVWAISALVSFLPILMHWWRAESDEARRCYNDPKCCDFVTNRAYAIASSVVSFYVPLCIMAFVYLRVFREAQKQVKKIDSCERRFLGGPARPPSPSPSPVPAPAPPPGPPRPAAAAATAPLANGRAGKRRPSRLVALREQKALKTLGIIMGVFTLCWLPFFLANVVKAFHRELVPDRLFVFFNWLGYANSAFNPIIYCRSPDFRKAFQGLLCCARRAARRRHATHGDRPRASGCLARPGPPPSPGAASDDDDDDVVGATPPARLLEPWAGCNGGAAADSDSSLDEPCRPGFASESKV

Sequence of Kappa-type opioid receptor (Homo sapiens) (P41145 whole entry): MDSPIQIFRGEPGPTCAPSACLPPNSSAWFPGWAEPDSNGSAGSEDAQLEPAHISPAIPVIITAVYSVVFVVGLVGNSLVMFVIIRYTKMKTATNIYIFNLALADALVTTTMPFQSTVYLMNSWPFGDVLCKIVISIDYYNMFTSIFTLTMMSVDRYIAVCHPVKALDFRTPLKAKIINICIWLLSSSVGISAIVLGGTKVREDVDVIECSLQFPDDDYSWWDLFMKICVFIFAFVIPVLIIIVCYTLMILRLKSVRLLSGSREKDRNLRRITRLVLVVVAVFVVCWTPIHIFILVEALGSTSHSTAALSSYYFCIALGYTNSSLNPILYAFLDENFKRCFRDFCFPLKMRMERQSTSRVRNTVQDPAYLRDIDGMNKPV
Sequence of 5-hydroxytryptamine receptor 6 (Homo sapiens) (P50406 whole entry): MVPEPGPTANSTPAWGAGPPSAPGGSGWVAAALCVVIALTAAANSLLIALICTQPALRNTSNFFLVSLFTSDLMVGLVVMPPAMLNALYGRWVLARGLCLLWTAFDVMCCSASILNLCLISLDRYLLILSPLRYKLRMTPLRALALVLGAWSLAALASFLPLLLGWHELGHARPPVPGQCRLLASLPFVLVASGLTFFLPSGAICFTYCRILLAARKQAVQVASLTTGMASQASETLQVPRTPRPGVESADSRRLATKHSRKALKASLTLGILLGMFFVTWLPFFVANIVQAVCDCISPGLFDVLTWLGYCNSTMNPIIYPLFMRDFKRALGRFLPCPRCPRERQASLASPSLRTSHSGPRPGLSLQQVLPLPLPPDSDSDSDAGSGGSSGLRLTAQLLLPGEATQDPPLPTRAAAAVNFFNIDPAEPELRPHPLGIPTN
Sequence of Cannabinoid receptor 1 (Homo sapiens) (P21554 whole entry): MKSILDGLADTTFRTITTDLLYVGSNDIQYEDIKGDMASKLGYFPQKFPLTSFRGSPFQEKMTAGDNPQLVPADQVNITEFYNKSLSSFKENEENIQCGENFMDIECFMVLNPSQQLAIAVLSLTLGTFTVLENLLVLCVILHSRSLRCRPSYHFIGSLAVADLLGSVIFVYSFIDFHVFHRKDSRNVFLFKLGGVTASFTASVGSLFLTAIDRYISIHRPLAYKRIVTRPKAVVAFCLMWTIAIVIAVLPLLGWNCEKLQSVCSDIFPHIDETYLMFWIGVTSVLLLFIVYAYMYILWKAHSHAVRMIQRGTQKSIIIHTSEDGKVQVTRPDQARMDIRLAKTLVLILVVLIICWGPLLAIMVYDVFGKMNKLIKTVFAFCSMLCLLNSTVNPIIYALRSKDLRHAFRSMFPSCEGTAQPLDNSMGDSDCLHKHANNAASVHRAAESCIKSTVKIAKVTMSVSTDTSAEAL
Sequence of Muscarinic acetylcholine receptor M2 (Homo sapiens) (P08172 whole entry): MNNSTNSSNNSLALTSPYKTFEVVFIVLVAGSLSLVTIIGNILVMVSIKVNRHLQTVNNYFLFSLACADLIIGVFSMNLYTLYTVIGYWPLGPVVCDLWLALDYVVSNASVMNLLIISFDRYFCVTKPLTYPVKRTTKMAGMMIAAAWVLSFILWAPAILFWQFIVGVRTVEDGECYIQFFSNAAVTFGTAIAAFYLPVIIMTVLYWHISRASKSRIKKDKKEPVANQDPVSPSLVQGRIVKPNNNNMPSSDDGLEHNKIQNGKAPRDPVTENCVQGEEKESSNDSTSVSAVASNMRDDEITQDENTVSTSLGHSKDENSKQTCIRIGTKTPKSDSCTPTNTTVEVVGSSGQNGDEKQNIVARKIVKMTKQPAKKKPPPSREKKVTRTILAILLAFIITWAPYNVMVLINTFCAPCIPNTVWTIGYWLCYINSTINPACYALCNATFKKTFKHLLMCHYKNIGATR
Sequence of Sodium-dependent serotonin transporter (Homo sapiens) (P31645 whole entry, looked up): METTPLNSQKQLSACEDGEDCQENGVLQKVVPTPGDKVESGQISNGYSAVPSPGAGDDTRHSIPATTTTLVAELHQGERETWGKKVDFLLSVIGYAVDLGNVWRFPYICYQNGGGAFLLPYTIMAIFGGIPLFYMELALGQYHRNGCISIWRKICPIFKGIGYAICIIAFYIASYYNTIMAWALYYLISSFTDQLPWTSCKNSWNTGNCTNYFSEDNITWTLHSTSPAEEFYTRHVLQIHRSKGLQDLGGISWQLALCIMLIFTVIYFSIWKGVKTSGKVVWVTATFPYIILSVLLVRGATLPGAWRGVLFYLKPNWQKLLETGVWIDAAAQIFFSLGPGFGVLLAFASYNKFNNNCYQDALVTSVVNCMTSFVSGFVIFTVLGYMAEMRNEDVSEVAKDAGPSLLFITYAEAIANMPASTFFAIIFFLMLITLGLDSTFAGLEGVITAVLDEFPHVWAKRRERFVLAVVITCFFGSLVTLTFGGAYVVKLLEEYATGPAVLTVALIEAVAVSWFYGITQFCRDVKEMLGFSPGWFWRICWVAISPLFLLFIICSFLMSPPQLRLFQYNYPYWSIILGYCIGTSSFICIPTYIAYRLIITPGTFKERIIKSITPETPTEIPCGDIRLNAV
Sequence of Endothelin-1 receptor (Homo sapiens) (P25101 whole entry): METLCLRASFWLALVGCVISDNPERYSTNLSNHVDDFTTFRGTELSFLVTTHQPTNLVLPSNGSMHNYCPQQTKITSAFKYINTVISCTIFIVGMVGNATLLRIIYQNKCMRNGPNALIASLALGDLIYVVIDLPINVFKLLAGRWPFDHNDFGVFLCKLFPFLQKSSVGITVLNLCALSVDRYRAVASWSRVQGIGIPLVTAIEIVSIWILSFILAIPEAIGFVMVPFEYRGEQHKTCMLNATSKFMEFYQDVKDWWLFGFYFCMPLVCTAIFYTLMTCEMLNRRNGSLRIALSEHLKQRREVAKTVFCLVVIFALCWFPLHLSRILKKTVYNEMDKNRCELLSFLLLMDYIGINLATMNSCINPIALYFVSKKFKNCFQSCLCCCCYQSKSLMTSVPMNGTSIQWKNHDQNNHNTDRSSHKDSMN
Sequence of Sigma non-opioid intracellular receptor 1 (Homo sapiens) (Q99720 whole entry): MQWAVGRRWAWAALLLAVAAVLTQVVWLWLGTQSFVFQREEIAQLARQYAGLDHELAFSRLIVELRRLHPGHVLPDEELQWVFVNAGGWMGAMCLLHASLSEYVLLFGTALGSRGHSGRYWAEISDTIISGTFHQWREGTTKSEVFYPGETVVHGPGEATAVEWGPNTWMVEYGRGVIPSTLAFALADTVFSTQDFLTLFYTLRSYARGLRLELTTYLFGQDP
Sequence of Alpha-1B adrenergic receptor (Rattus norvegicus) (P15823 whole entry, looked up): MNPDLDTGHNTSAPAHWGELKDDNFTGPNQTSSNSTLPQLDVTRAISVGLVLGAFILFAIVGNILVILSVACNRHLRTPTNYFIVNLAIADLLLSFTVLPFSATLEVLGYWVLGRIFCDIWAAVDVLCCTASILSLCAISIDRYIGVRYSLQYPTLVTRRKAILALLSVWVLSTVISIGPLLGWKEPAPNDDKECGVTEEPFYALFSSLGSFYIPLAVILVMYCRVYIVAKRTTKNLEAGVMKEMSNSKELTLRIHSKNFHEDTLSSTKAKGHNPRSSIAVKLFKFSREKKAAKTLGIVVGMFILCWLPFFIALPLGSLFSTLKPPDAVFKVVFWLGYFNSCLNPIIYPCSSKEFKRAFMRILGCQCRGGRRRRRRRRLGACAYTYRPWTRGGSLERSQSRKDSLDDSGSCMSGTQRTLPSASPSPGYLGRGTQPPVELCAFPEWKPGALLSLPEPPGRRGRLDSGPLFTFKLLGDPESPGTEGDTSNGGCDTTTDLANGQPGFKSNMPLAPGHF
Sequence of Androgen receptor (Rattus norvegicus) (P15207 whole entry S389L): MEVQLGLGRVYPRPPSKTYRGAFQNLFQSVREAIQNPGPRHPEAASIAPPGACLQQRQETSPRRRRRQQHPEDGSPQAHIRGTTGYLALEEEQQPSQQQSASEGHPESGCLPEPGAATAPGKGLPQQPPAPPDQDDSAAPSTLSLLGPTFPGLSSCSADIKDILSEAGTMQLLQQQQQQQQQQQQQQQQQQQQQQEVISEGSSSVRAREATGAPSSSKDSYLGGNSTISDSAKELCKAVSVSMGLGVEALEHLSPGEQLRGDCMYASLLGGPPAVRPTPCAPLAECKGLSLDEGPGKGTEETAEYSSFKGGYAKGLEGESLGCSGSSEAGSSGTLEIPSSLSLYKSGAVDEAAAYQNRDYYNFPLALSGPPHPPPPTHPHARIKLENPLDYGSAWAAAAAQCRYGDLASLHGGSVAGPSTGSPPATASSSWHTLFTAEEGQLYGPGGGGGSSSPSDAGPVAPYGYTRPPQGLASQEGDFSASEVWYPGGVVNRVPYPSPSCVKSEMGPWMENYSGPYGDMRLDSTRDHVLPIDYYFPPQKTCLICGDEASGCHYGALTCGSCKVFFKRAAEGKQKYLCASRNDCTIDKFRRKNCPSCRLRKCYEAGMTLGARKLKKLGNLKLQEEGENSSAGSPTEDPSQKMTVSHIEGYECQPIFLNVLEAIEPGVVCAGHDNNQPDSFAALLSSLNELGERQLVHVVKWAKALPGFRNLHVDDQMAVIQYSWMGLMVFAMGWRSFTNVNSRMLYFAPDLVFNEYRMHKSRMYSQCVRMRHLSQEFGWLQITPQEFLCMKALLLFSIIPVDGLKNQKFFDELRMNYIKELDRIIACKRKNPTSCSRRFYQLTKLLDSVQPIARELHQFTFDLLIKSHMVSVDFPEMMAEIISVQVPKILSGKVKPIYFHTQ

CS(=O)(=O)NCC[C@H](NC(=O)c1cncc2c1cnn2-c1ccc(F)cc1)c1ccnc(S(C)(=O)=O)c1 [BI 9307]
inhibition [1]: -4.31%
residual activity [2]: 100%
inhibition [3]: 17.4%
residual activity [4]: 82%
residual activity [5]: 100%

CS(=O)(=O)c1cc(C2(NC(=O)c3cncc4c3cnn4-c3ccc(F)cc3)CC2)ccn1 [BI 639667]
residual activity [6]: 100%
residual activity [7]: 105%
residual activity [8]: 89%
residual activity [9]: 105%
residual activity [10]: 124%
residual activity [11]: 91%
residual activity [12]: 72%
activity at 10 µM [13]: 71% (not active)
residual activity [14]: 101%
residual activity [15]: 98%
inhibition [16]: 22%
residual activity [17]: 89%
residual activity [18]: 79%
residual activity ([19]; Compound concentration 0.03 uM): 72%
residual activity ([19]; Compound concentration 0.1 uM): 52%
residual activity ([19]; Compound concentration 0.3 uM): 33%
residual activity ([19]; Compound concentration 1.0 uM): 17%
residual activity ([19]; Compound concentration 3.0 uM): 7.5%
residual activity ([19]; Compound concentration 10.0 uM): 3%
residual activity [20]: 100%
residual activity [21]: 93%
residual activity [22]: 97%
residual activity [23]: 90%
residual activity [24]: 88%
residual activity [25]: 74%
residual activity [26]: 95%
